# Measurements taken from PubChem BioAssay AID2060332 (Molecular Pharmacology Branch, DTP, NCI, 2025).
# Tested on: LG0567-F671-PDC multi-cell spheroid viability
# Experiment: Anticancer human tumor LG0567-F671-PDC patient-derived lung adenocarcinoma cell line growth inhibition [IpAb]
# Conditions: for IC50: curve of first compound; for viability, T/C: stronger effect = lower value
# Outline: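 Combinations with ipatasertib or abemaciclib were tested on tumour spheroids holding HUVEC (25%) and MSC (15%) alongside 60% malignant cells. Top concentration was at or near clinical Cmax (10 microM if undefined), descending in half-log steps.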
# [1] = second compound 0.01 µM, first compound 0.0316 µM
# [2] = second compound 0.01 µM, first compound 0.1 µM
# [3] = second compound 0.01 µM, first compound 0.316 µM
# [4] = second compound 0.01 µM, first compound 1 µM
# [5] = second compound 0.01 µM, first compound 3.16 µM
# [6] = second compound 0.01 µM, first compound 10 µM
# [7] = second compound 0.0316 µM, first compound 0.0316 µM
# [8] = second compound 0.0316 µM, first compound 0.1 µM
# [9] = second compound 0.0316 µM, first compound 0.316 µM
# [10] = second compound 0.0316 µM, first compound 1 µM
# [11] = second compound 0.0316 µM, first compound 3.16 µM
# [12] = second compound 0.0316 µM, first compound 10 µM
# [13] = second compound 0.1 µM, first compound 0.0316 µM
# [14] = second compound 0.1 µM, first compound 0.1 µM
# [15] = second compound 0.1 µM, first compound 0.316 µM
# [16] = second compound 0.1 µM, first compound 1 µM
# [17] = second compound 0.1 µM, first compound 3.16 µM
# [18] = second compound 0.1 µM, first compound 10 µM
# [19] = second compound 0.316 µM, first compound 0.0316 µM
# [20] = second compound 0.316 µM, first compound 0.1 µM
# [21] = second compound 0.316 µM, first compound 0.316 µM
# [22] = second compound 0.316 µM, first compound 1 µM
# [23] = second compound 0.316 µM, first compound 3.16 µM
# [24] = second compound 0.316 µM, first compound 10 µM
# [25] = second compound 1 µM, first compound 0.0316 µM
# [26] = second compound 1 µM, first compound 0.1 µM
# [27] = second compound 1 µM, first compound 0.316 µM
# [28] = second compound 1 µM, first compound 1 µM
# [29] = second compound 1 µM, first compound 3.16 µM
# [30] = second compound 1 µM, first compound 10 µM
# 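Also: viability read after 7 days of drug exposure.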
# 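For viability, T/C in this document: 100% = DMSO vehicle control luminescence.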
SMILES,IC50 (second compound 0.01 µM) [nM],IC50 (second compound 0.0316 µM) [nM],IC50 (second compound 0.1 µM) [nM],IC50 (second compound 0.316 µM) [nM],IC50 (second compound 1 µM) [nM],"viability, T/C [1] [%]","viability, T/C [2] [%]","viability, T/C [3] [%]","viability, T/C [4] [%]","viability, T/C [5] [%]","viability, T/C [6] [%]","viability, T/C [7] [%]","viability, T/C [8] [%]","viability, T/C [9] [%]","viability, T/C [13] [%]","viability, T/C [14] [%]","viability, T/C [19] [%]","viability, T/C [20] [%]","viability, T/C [25] [%]","viability, T/C [26] [%]",also measured
C=CC(=O)N1CCN(c2nc(=O)n(-c3c(C)ccnc3C(C)C)c3nc(-c4c(O)cccc4F)c(F)cc23)C(C)C1 (stereo not given) + CCN1CCN(Cc2ccc(Nc3ncc(F)c(-c4cc(F)c5nc(C)n(C(C)C)c5c4)n3)nc2)CC1,< 31.6,< 31.6,< 31.6,< 31.6,< 31.6,21.1,19.5,14.9,19.8,17.1,17.5,18.4,14.3,15.7,15.5,15.8,16.2,18.4,18.6,23,"viability, T/C [10]: 15.9%; viability, T/C [11]: 13.1%; viability, T/C [12]: 14%; viability, T/C [15]: 16.6%; viability, T/C [16]: 13.2%; viability, T/C [17]: 13.8%; viability, T/C [18]: 13.9%; viability, T/C [21]: 22.1%; viability, T/C [22]: 18.2%; viability, T/C [23]: 16.6%; viability, T/C [24]: 16%; viability, T/C [27]: 27.1%; viability, T/C [28]: 18.9%; viability, T/C [29]: 25.8%; viability, T/C [30]: 21.1%"
Cn1ncc(Cl)c1-c1cc(C(=O)NC(CN)Cc2cccc(F)c2)sc1Cl (stereo not given) + CCN1CCN(Cc2ccc(Nc3ncc(F)c(-c4cc(F)c5nc(C)n(C(C)C)c5c4)n3)nc2)CC1,1850,1190,470,< 31.6,226,88.8,68,50.2,61.4,49.9,0.15,57.7,53.9,49.9,74.8,51.4,42.4,51.4,59,51.8,"viability, T/C [10]: 54.2%; viability, T/C [11]: 28.6%; viability, T/C [12]: 0.13%; viability, T/C [15]: 52.7%; viability, T/C [16]: 45.8%; viability, T/C [17]: 27.6%; viability, T/C [18]: 0.13%; viability, T/C [21]: 57.9%; viability, T/C [22]: 33%; viability, T/C [23]: 30.9%; viability, T/C [24]: 0.14%; viability, T/C [27]: 47.2%; viability, T/C [28]: 37.4%; viability, T/C [29]: 30%; viability, T/C [30]: 0.19%"
Cn1ncnc1[C@H]1c2n[nH]c(=O)c3cc(F)cc(c23)N[C@@H]1c1ccc(F)cc1 + CCN1CCN(Cc2ccc(Nc3ncc(F)c(-c4cc(F)c5nc(C)n(C(C)C)c5c4)n3)nc2)CC1,71.7,18.2,11.2,22,5.45,64.9,40.9,,,,,49.8,24.7,,29.8,30.4,49.2,30,32.8,40.3,"viability, T/C (second compound 0.01 µM, first compound 0.000316 µM): 94.2%; viability, T/C (second compound 0.01 µM, first compound 0.001 µM): 89.6%; viability, T/C (second compound 0.01 µM, first compound 0.00316 µM): 64.2%; viability, T/C (second compound 0.01 µM, first compound 0.01 µM): 76.7%; viability, T/C (second compound 0.0316 µM, first compound 0.000316 µM): 64%; viability, T/C (second compound 0.0316 µM, first compound 0.001 µM): 81.5%; viability, T/C (second compound 0.0316 µM, first compound 0.00316 µM): 69.3%; viability, T/C (second compound 0.0316 µM, first compound 0.01 µM): 46.1%; viability, T/C (second compound 0.1 µM, first compound 0.000316 µM): 63.2%; viability, T/C (second compound 0.1 µM, first compound 0.001 µM): 75.8%; viability, T/C (second compound 0.1 µM, first compound 0.00316 µM): 63.1%; viability, T/C (second compound 0.1 µM, first compound 0.01 µM): 52.8%; viability, T/C (second compound 0.316 µM, first compound 0.000316 µM): 63.5%; viability, T/C (second compound 0.316 µM, first compound 0.001 µM): 72.2%; viability, T/C (second compound 0.316 µM, first compound 0.00316 µM): 66.5%; viability, T/C (second compound 0.316 µM, first compound 0.01 µM): 52.1%; viability, T/C (second compound 1 µM, first compound 0.000316 µM): 61.9%; viability, T/C (second compound 1 µM, first compound 0.001 µM): 67.4%; viability, T/C (second compound 1 µM, first compound 0.00316 µM): 56.1%; viability, T/C (second compound 1 µM, first compound 0.01 µM): 43.3%"
